Data set [1] has as its system rat stomach strip (fundus), contraction caused by PGE1. Kind of data set: rat stomach assay: PGE1 antagonism, inhibition of PGE1-induced contraction of rat stomach fundus muscle strips. It counts as cell-based. To be noted: Tyrode solution pH 7.1, 37°, PGE1 at concentration causing about 25% of maximum response; for IC50: Rattus norvegicus, pH 7.1, rat stomach fundus strip, read-out: PGE1 Antagonist IC50. The procedure:
J. Pharmacol. 12, 344 (1957)]. Male rats are decapitated and a strip is cut from the fundus of the stomach along the greater curvature. The strip (3 to 5 mm wide and 3 to 4 cm long) is suspended in Tyrode solution at pH 7.1 and 37° and gassed continuously with oxygen. Responses of the muscle are monitored isometrically by means of a strain gauge transducer. The above table lists for several compounds of this invention the concentration in μg/ml required to inhibit by 50% the contraction of muscle strips caused by a concentration of PG1 that normally causes about 25% of maximum responses ([…]). Some of the carboxamides were also run against higher concentration of PGE1 and gave greater IC50 values.

Data set [2] deals with ethanol-induced gastric ulcer. The experiment in a line: ethanol-induced gastric ulcer test in rats (gastric cytoprotection). It counts as in vivo, rat. To be noted: for protection against ulcers: 2.0 mg/kg. The procedure: One of these compounds is the tert-butylcarboxamide 7 of Example 3. In a test designed to detect gastric cytoprotectin [Robert, U.S. Pat. No. 4,097,603], compound 7 inhibited ethanol-induced gastric ulcer to the extent of about 50 % when administered orally to rats at 2 mg/kg. Under similar conditions 0.5 mg/kg of PGE1 inhibited ulcer formation to the extent of 80%. […] At 2.0 mg/kg compound 14 of Example 7 gave about 18% protection and compound 16 of Example 8 gave about 27% protection against ulcers.

Data set [3] is described as follows: pKa measured in 1:1 ethanol/water. To be noted: p-toluenesulfonate salt. It counts as physicochemical. The procedure: This iodamide was treated with pyrazolidinone 6 by a procedure analogous to that used for the synthesis of 10, Example 4b. The crude product 15, was obtained as an oil in 94% yield. A solution of 6.84 g of 15 in 3 ml of dry acetonitrile was added to a solution of 3.39 g of p-toluenesulfonic acid in 26 ml of dry acetonitrile, giving 5.12 g (66%) of salt 16, mp 123°-126°. Recrystallization from acetonitrile gave analytically pure salt 16, mp 129°-130.5°; Anal. calcd. for C28 H49 N3 SO6 : C, 60.51; H, 8.89; N, 7.56; found C, 60.50; H, 8.75; N, 7.89.

The nature of data set [4]: side effects after oral administration to rats. It counts as in vivo, rat.
Setting [5] is: rats, oral, doses as high as 300 mg/kg.

Values after ≈ are worked out from the molar mass of the structure shown.

Usually IC50 stands for the concentration that inhibits the measured activity by half. As to `CCCCCC(O)CCN1C(=O)CCN1CCCCCCC(=O)NCC(C)(C)C` (stereo not drawn) [Compound 10, N(2,2-Dimethylpropyl)7[3-oxo-2(3-hydroxy-n-octyl)-pyrazolidin-1-yl]heptanamide], the IC50 in data set [1] lay within 3 to 5 µg/mL (≈ 7.29 to 12.1 µM). What is called pKa is the negative logarithm of the acid dissociation constant. In the case of `CCCCCC(O)CCN1C(=O)CCN1CCCCCCC(=O)NC(C)C` (stereo not drawn) [Compound 16, N(iso-Propyl)7[3-oxo-2(3-hydroxy-n-octyl)pyrazolidin-1-yl]heptanamide], the IC50 in data set [1] turned out to be 75 µg/mL (≈ 196 µM). In addition, the protection against ulcers entry in data set [2] is reported as “about 27%”. In addition, in data set [3], the pKa was 3.25. As to `CCCCCC(O)CCN1C(=O)CCN1CCCCCCC(=O)NC(C)(C)C` (stereo not drawn) [Compound 7, N(tert-Butyl)7[3-oxo-2-(3-hydroxy-n-octyl)pyrazolidin-1-yl]heptanamide], the IC50 in data set [1] is 33 µg/mL (≈ 83 µM). Moreover, the “inhibition of ethanol-induced gastric ulcer” value in data set [2] (oral, 2 mg/kg) is “about 50%”. Moreover, in data set [4] (rat, in vivo, po), the “overt prostaglandin-like side effects” value is recorded as “no overt prostaglandin-like side effects”. Also, in data set [4] (setting [5]), the diarrhea entry is listed as “no mortality or diarrhea” and the mortality result is reported as “no mortality”.

Turning to `CCCCCC(O)CCN1C(=O)CCN1CCCCCCC(=O)NC` (stereo not drawn) [Compound 17, N-methyl-7[3-oxo-2(hydroxy-n-octyl)pyrazolidin-1-yl]heptanamide], the IC50 in data set [1] turned out to be 175 µg/mL (≈ 492 µM).

For `CCCCCC(O)CCN1C(=O)CCN1CCCCCCC(=O)N(C(C)C)C(C)C` (stereo not drawn) [Compound 13, N,N(Diisopropyl)7-[3-oxo-2(3-hydroxy-n-octyl)-pyrazolidin-1-yl]heptanamide], the IC50 in data set [1] was found to be 20 µg/mL (≈ 47 µM). The same measure, in the same setting: the value for `CCCCCC(O)CCN1CCC(=O)N1CCCCCCC(=O)NC(C)(C)C` (stereo not drawn) [Compound 1, N-(tert-butyl)-7[3-oxo-1(3-hydroxy-n-octyl)pyrazolidin-2-yl]heptanamide] was 60 µg/mL (≈ 151 µM).

In the case of `CCCCCC(O)CCN1C(=O)CCN1CCCCCCC(=O)NC(C)(C)C` (stereo not drawn) [Compound 9, N(tert-Butyl)7[3-oxo-2-(3-hydroxy-n-octyl)pyrazolidin-1-yl]heptanamide], the “PGE1 Antagonist IC50” value in data set [1] (rat stomach fundus strip) came to 60 µg/mL. As for `CCCCCC(O)CCN1C(=O)CCN1CCCCCCC(=O)NC(C)(C)CC(C)(C)C` (stereo not drawn) [Compound 14, N(1,1,3,3,-Tetramethyl-n-butyl)7[3-oxo-2(3-hydroxy-n-octyl)pyrazolidin-1-yl]heptanamide], the IC50 in data set [1] was determined as 2 µg/mL (≈ 4.41 µM). Moreover, in data set [2], the protection against ulcers entry was “about 18%”. On to `CCCCCC(O)CCN1CCC(=O)N1CCCCCCC(=O)NC(C)(C)CC` (stereo not drawn) [Compound 5, N(tert-Amyl)7[3-oxo-1(3-hydroxy-n-octyl)pyrazolidin-2-yl]heptanamide], for which, in data set [1], the IC50 worked out at 25 µg/mL (≈ 60.7 µM). In the case of `CCCCC[C@H](O)/C=C/[C@H]1[C@H](O)CC(=O)[C@@H]1CCCCCCC(=O)O` [PGE1, reference compound], in data set [2] (similar conditions, 0.5 mg/kg), the “inhibition of ulcer formation” value stood at 80%. For `CCCCCC(O)CCN1C(=O)CCN1CCCCCCC(=O)NC(C)(C)CC` (stereo not drawn) [Compound 12, N(1,1-Dimethylpropyl)7-[3-oxo-2(3-hydroxy-n-octyl)pyrazolidin-1-yl]heptanamide], in data set [1], the IC50 is 5 µg/mL (≈ 12.1 µM).

The record behind these values is patent US4211876A, “3-Pyrazolidinone carboxamides” (E. I. Du Pont de Nemours and Company, priority 1979, dated 1980).
